# Experimental data as given in patent US5541290A, “Optically pure calpain inhibitor compounds” (priority 1993, dated 1996).
# Counter-ions that a name gives are not always drawn.
# Molecular target: T1, Calpain I (porcine erythrocytes) (Sus scrofa, UniProt P35750)
# T1 construct: Calpain I (porcine erythrocytes, Nacalai Tesque, Kyoto, Japan); purchased Nacalai Tesque, Kyoto, Japan; host or cells: porcine erythrocytes (natural tissue source)
# T1 sequence (P35750 1-714): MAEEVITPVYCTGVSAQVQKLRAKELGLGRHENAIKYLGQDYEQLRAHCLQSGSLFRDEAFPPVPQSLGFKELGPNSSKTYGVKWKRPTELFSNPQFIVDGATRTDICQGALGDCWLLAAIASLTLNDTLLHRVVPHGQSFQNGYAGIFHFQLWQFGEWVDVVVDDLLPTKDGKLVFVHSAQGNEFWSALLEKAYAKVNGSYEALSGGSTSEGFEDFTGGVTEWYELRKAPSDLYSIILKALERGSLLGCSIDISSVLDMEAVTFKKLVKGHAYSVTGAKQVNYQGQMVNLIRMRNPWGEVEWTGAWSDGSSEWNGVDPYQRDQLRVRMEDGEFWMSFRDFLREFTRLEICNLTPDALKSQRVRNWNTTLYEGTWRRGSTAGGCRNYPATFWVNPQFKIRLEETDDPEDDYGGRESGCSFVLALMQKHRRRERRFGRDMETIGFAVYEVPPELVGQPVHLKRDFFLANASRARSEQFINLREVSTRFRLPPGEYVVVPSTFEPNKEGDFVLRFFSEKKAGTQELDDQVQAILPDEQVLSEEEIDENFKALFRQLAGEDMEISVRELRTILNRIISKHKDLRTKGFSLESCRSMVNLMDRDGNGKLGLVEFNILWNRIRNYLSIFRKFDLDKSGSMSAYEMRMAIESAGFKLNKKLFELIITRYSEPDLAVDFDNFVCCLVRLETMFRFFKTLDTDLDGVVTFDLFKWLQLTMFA
# T1 sequence (P04574 1-266 partner): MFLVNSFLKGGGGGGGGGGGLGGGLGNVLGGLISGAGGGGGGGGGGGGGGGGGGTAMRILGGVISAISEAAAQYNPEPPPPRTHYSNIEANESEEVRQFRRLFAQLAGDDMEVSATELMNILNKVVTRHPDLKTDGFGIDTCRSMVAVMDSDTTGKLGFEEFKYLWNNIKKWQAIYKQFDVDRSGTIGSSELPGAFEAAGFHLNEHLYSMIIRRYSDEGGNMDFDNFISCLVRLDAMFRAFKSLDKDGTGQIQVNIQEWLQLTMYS
# Assay: Calpain assay, continuous spectrofluorometric assay with SLY-MCA
# Format: biochemical
# Details: SLY-MCA substrate, 25° C., pH 7.5, competitive inhibition fit, read-out: Ki, pCal I
# Procedure: Calpain activity was monitored using a continuous spectrofluorometric assay with succinyl-Leucyl-Tyrosyl-4-methylcoumaryl-γ-amide (SLY-MCA); Sasaki, T.; Kikuchi, T.; Yumotogo, N.; Yoshimura, N. and Murachi, T. J. Biol. Chem. 1984, 259. 12489-12494) at 25° C. using a Hitachi F4500 fluorescence spectrophotometer with a temperature controlled cuvette holder. The substrate solution was composed of SLY-MCA (2-0.2 mM) in 50 mM MOPS, pH 7.5, 5 mM CaCl2, 5 mM β-mercaptoethanol and 1% DMSO. Solutions of the inhibitors (100-500 nM) were prepared in the same buffer mixture as substrate. Calpain I (porcine erythrocytes, Nacalai Tesque, Kyoto, Japan) was diluted to 180 ug/mL in 20 mM HEPES, pH 7.5, 2 mM EDTA, 2 mM EGTA and 5 mM DTT. The substrate solution (0.9 mL) was placed in a 1 cm cuvette and to this was added either the inhibitor solution (0.05 mL) or the buffer (0.05 mL) as a control. The reaction was initiated by addition of the calpain I solution (0.05 mL) and the increase in fluorescence (excitation at 380 nm; emission at 460 nm) was monitored for 3 to 10 min. The initial velocities were then used to obtain the values of Vmax, Km and Ki by an iterative least squares fit of the data to the following equation for competitive inhibition according to the method of W. W. Cleland, Biochim. Biophys. Acta 67: 173 (1963).
# V={Vmax ·[SLY-MCA]}/{(1+Inh]/Kl)·Km+[SLY-MCA]}
row,Ki [nM],Compound
1,170 ± 15,CCNC(=O)C(=O)C(CC)NC(=O)C(CC(C)C)NC(=O)OC(C)(C)C [Boc-L-Leu-L-Abu-CONH-Et]
2,129 ± 15,"CCC(NC(=O)C(CC(C)C)NC(=O)OCc1ccccc1)C(=O)C(=O)NCCS(=O)(=O)CC [Cbz-L-Leu-L-Abu-C(O)-NH-(CH2)2 -SO2 -ET, Cbz-L-Leu-L-Abu-C(O)--NH--(CH2)2 --SO2 --Et]"
3,718 ± 84,CC(C)C[C@H](NC(=O)OCc1ccccc1)C(=O)N[C@@H](Cc1ccccc1)C(=O)C(=O)N[C@@H](C)C(=O)O [Cbz-L-Leu-L-Phe-C(O)-L-Ala-OH]
4,92 ± 6,COC(=O)C(C)NC(=O)C(=O)C(Cc1ccccc1)NC(=O)C(CC(C)C)NC(=O)OCc1ccccc1 [Cbz-L-Leu-L-Phe-C(O)-L-Ala-OMe]
5,141 ± 22,CCC(NC(=O)C(=O)C(Cc1ccccc1)NC(=O)C(CC(C)C)NC(=O)OCc1ccccc1)C(=O)OC [Cbz-L-Leu-L-Phe-C(O)-L-α-Abu-OMe]
6,273 ± 17,COC(=O)[C@H](Cc1ccc(OC(C)(C)C)cc1)NC(=O)C(=O)C(Cc1ccccc1)NC(=O)[C@H](CC(C)C)NC(=O)OCc1ccccc1 (stereo partly drawn) [Cbz-L-Leu-L-Phe-C(O)-Tyr(O-t-butyl)-OMe]
7,244 ± 11,"CCCC(NC(=O)C(CC(C)C)NC(=O)C(N)Cc1ccccc1)C(=O)C(=O)NCC [D-Phe-L-Leu-L-Norvaline-CONH-Et.HCl, D-Phe-L-Leu-L-Norvaline-CONH-Et·HCl]"
8,332 ± 29,CCNC(=O)C(=O)C(CC)NC(=O)C(CC(C)C)NC(=O)N(C)C [Dimethylurea-L-Leu-L-Abu-CONH-Et]
9,116 ± 5,"CCCC(NC(=O)C(CC(C)C)NC(=O)C(N)Cc1ccccc1)C(=O)C(=O)NCC [L-Phe-L-Leu-L-Norvaline-CONH-Et.HCl, L-Phe-L-Leu-L-Norvaline-CONH-Et·HCl]"
10,199 ± 16,CCNC(=O)C(=O)C(CC)NC(=O)C(CC(C)C)NC(=O)N1CCOCC1 [Morpholinourea-L-Leu-L-Abu-CONH-Et]
11,93 ± 4,Boc-D-Phe-L-Leu-L-Norvaline-CONH-Et
12,61 ± 2,Boc-L-Phe-L-Leu-L-Norvaline-CONH-Et
13,77 ± 10,Cbz-L-Leu-L-Abu-CONH-Et
14,78,Cbz-L-Leu-L-Norvaline-CONH-Et
15,76.6 ± 5.2,Cbz-L-Leu-L-Phe-C(O)-L-Norleucine-OMe
16,31 ± 12,Cbz-L-Leu-L-Phe-C(O)-Phe-OMe
17,89,Cbz-L-Leu-L-Phenylalanine-CONH-Et

# Molecular target: T1, Calpain I (porcine erythrocytes)
# Assay: as above
# Format: biochemical
# Details: not given
row,IC50 [nM],Compound
1,> 1500,CCNC(=O)C(=O)C(Cc1ccccc1)NC(=O)C(CC(C)C)NC(=O)OCc1ccccc1 [Cbz-L-Leu-D-Phe-CONH-Et]
